Reference: US20250034182A1, “PHOSPHOLIPID COMPOUNDS AND METHODS OF MAKING AND USING THE SAME” (priority 2021, published 2025)

Columns and labels:
Format in all cases: cell-based
[1] = test system: Respiratory syncytial virus recombinant with luciferase (RSV-Luc5) in NHBE cells; experiment: NHBE RSV-Luc5 384-well assay (EC50 RSVFLUC NHBE-384, Example U); conditions: human respiratory syncytial virus, 72 h, read-out: RSV FLuc NHBE 384 EC50 (v2) (nM) (per Ex. U)
Protocol: Normal Human Bronchial Epithelial (NHBE) cells were purchased from Lonza (Walkersville, MD Cat #CC2540) and maintained in BEGM Bronchial Epithelial Cell (Growth Medium BulletKit (Lonza CC-3170).
Cells were thawed, expanded, and were used for experiments at passage 2. Respiratory syncytial virus recombinant with luciferase (RSV-Luc5) (≥1×10^7 Infectious Units/ml (IU/ml) determined by TCID50) was purchased from Microbiologics (Saint Cloud, MN). Viral replication was determined in NHBE cells in the following manner.
(§1) Compounds are prepared in 100% DMSO in 384-well polypropylene plates (Greiner, Monroe, NC, Cat #784201) with 8 compounds per plate in grouped replicates of 4 at 10 serially diluted concentrations (1:3). The serially diluted compounds were transferred to low dead volume Echo plates (Labcyte, Sunnyvale, CA, Cat #LP-0200).
The test compounds were spotted to 384-well assay plates (Greiner, Monroe, NC, Cat #781091) at 200 nL per well. NHBE cells were harvested and suspended in BEGM Bronchial Epithelial Cell Growth Medium BulletKit and seeded to the pre-spotted assay plates at 5,000 cells per well in 30 μL. RSV-Luc5 virus was diluted in BEGM Bronchial Epithelial Cell Growth Medium BulletKit at 500,000 Infectious Units (IU) per mL and 10 μL per well was added to the assay plates containing cells and compounds, for an MOI of 1. The assay plates were incubated for 3 days at 37° C. and 5% CO2. At the end of incubation, One-Glo reagent (Promega, Madison, WI, Cat #E6120) was prepared. The assay plates and One-Glo reagent were equilibrated to room temperature for at least 15 minutes. 40 μL per well of One-Glo reagent was added and the plates were incubated at room temperature for 15 minutes before reading the luminescence signal on an EnVision multimode plate reader (Perkin Elmer, Waltham, MA). Remdesivir was used as positive control and DMSO was used as negative control. Values were normalized to the positive and negative controls (as 0% and 100% replication, respectively) and data was fitted using non-linear regression analysis by Gilead's dose response tool. The EC50 value for each compound was defined as the concentration reducing the viral replication by 50%.

[2] = RSV NHBE CC50 384 V2 (per Ex. U); conditions: human
[3] = test system: Respiratory syncytial virus recombinant with luciferase (RSV-Luc5) in HEp-2 cells; experiment: HEp-2 RSV-Luc5 384-well assay (EC50 RSVFLUC Hep2-384 v2, Example V); conditions: human respiratory syncytial virus, HEp-2, 72 h, read-out: RSV Hep-2 FLuc EC50 (v2) (nM) (per Ex. V)
Text: HEp-2 cell line was purchased from ATCC (Manassas, VA Cat #CCL-23) and maintained in Dulbecco's […] (DMEM) (Corning, New York, NY, Cat #15-018CM) supplemented with 10% fetal bovine serum (FBS) (Hyclone, Logan, UT, Cat #SH30071-03) and 1× Penicillin-Streptonycin-L-Glutamine (Corning, New York, NY, Cat #30-009-CI). Cells were passaged 2 times per week to maintain sub-confluent densities and were used for experiments at passage 5-20. Respiratory syncytial virus recombinant with luciferase (RSV-Luc5) (≥1×107 TCID50/ml) was purchased from Microbiologics (Saint Cloud, MN). Viral replication was determined in HEp-2 cells in the following manner.
as §1
The test compounds were spotted to 384-well assay plates (Greiner, Monroe, NC, Cat #781091) at 200 nL per well. HEp-2 cells were harvested and suspended in DMEM (supplemented with 10% FBS and 1× Penicillin-Streptomycin-L-Glutamine) and seeded to the pre-spotted assay plates at 4,000 cells per well in 30 μL. RSV-Luc5 viruses were diluted in DMEM (supplemented with 10% FBS and 1× Penicillin-Streptomycin-L-Glucamine) at 200,000 Infectious Units (IU) per mL and 10 μL per well was added to the assay plates containing cells and compounds, for an MOI=0.5. The assay plates were incubated for 3 days at 37° C. and 5% CO2. At the end of incubation, One-Glo reagent (Promega, Madison, WI, Cat #E6120) was prepared. The assay plates and One-Glo reagent were equilibrated to room temperature for at least 15 minutes. 40 μL per well of One-Glo reagent was added and the plates were incubated at room temp for 15 minutes before reading the luminescence signal on an EnVision multimode plate reader (Perkin Elmer, Waltham, MA). Remdesivir was used as positive control and DMSO was used as negative control. Values were normalized to the positive and negative controls (as 0% and 100% replication, respectively) and data was fitted using non-linear regression analysis by Gilead's dose response tool. The EC50 value for each compound was then determined as the concentration reducing the viral replication by 50%.

[4] = RSV HEP2-CC50-384-V2 (per Ex. V); conditions: human

Structure (SMILES) | EC50 [1] [nM] | CC50 at 3 days [2] [nM] | EC50 [3] [nM] | CC50 at 3 days [4] [nM] | CC50 at 3 days ([2]; NHBE cells, 384-well, read-out: RSV NHBE CC50 384 V2 (nM) (per Ex. U)) | CC50 at 3 days ([4]; HEp-2 cells, 384-well, read-out: RSV HEP2-CC50-384-V2 (nM) (per Ex. V))
CCCCCCCCCCCCCCCCCCOC[C@H](COP(=O)(O)OC[C@@]1(C#N)O[C@@H](c2ccc3c(N)ncnn23)[C@H](O)[C@@H]1O)Oc1ccc(C#N)nc1 [Compound 24] | 4 | 937 | – | – | – | –
CCCCCCCCCCCCCCCCCCC[C@H](COP(=O)(O)OC[C@@]1(C#N)O[C@@H](c2ccc3c(N)ncnn23)[C@H](O)[C@@H]1O)Oc1ccc(C#N)c(F)c1 [Compound 85, ((2R,3S,4R,5S)-5-(4-aminopyrrolo[2,1-f][1,2,4]triazin-7-yl)-2-cyano-3,4-dihydroxytetrahydrofuran-2-yl)methyl ((R)-2-(4-cyano-3-fluorophenoxy)henicosyl) hydrogen phosphate] | 11 | 1440 | 93 | > 50000 | – | –
CCCCCCCCCCCCCC[C@@H](COP(=O)(O)OC[C@@]1(C#N)O[C@@H](c2ccc3c(N)ncnn23)[C@H](O)[C@@H]1O)OCc1cc(F)cc(C#N)c1 [Compound 86, ((2R,3S,4R,5S)-5-(4-aminopyrrolo[2,1-f][1,2,4]triazin-7-yl)-2-cyano-3,4-dihydroxytetrahydrofuran-2-yl)methyl ((S)-2-((3-cyano-5-fluorobenzyl)oxy)hexadecyl) hydrogen phosphate] | 25 | 2900 | 546 | > 50000 | – | –
CCCCCCCCCCCCCCCCCC[C@@H](COP(=O)(O)OC[C@@]1(C#N)O[C@@H](c2ccc3c(N)ncnn23)[C@H](O)[C@@H]1O)OCc1cc(Cl)cc(C#N)c1 [Compound 87, ((2R,3S,4R,5S)-5-(4-aminopyrrolo[2,1-f][1,2,4]triazin-7-yl)-2-cyano-3,4-dihydroxytetrahydrofuran-2-yl)methyl ((S)-2-((3-chloro-5-cyanobenzyl)oxy)icosyl) hydrogen phosphate] | 133 | 3450 | 443 | > 34800 | – | –
CCCCCCCCCCCCCCCCOC[C@@H](COP(=O)(O)OC[C@@]1(C#N)O[C@@H](c2ccc3c(N)ncnn23)[C@H](O)[C@@H]1O)OCc1ccccc1 [Compound 92, ((2R,3S,4R,5S)-5-(4-aminopyrrolo[2,1-f][1,2,4]triazin-7-yl)-2-cyano-3,4-dihydroxytetrahydrofuran-2-yl)methyl ((S)-2-(benzyloxy)-3-(hexadecyloxy)propyl) hydrogen phosphate] | 47 | 9560 | 194 | > 50000 | – | –
CCCCCCCCCCCCCCCCCC[C@@H](COP(=O)(O)OC[C@@]1(C#N)O[C@@H](c2ccc3c(N)ncnn23)[C@H](O)[C@@H]1O)OCc1ccccc1 [Compound 93, ((2R,3S,4R,5S)-5-(4-aminopyrrolo[2,1-f][1,2,4]triazin-7-yl)-2-cyano-3,4-dihydroxytetrahydrofuran-2-yl)methyl ((S)-2-(benzyloxy)icosyl) hydrogen phosphate] | 663 | 8140 | 3060 | > 50000 | – | –
CCCCCCCCCCCCCCCCCCOC[C@](C)(COP(=O)(O)OC[C@@]1(C#N)O[C@@H](c2ccc3c(N)ncnn23)[C@H](O)[C@@H]1O)OCc1cc(F)cc(C#N)c1 [Compound 94, ((2R,3S,4R,5S)-5-(4-aminopyrrolo[2,1-f][1,2,4]triazin-7-yl)-2-cyano-3,4-dihydroxytetrahydrofuran-2-yl)methyl ((R)-2-((3-cyano-5-fluorobenzyl)oxy)-2-methyl-3-(octadecyloxy)propyl) hydrogen phosphate] | 59 | 16000 | 339 | > 50000 | – | –
CCCCCCCCCCCCCCCCCC[C@@H](COP(=O)(O)OC[C@@]1(C#N)O[C@@H](c2ccc3c(N)ncnn23)[C@H](O)[C@@H]1O)Oc1cc(F)cc(C#N)c1 [Compound 96, ((2R,3S,4R,5S)-5-(4-aminopyrrolo[2,1-f][1,2,4]triazin-7-yl)-2-cyano-3,4-dihydroxytetrahydrofuran-2-yl)methyl ((S)-2-(3-cyano-5-fluorophenoxy)icosyl) hydrogen phosphate] | 67 | 5240 | 368 | > 38100 | – | –
CCCCCCCCCCCCC[C@@H](COP(=O)(O)OC[C@@]1(C#N)O[C@@H](c2ccc3c(N)ncnn23)[C@H](O)[C@@H]1O)OCc1cc(F)cc(C#N)c1 [Compound 97, ((2R,3S,4R,5S)-5-(4-aminopyrrolo[2,1-f][1,2,4]triazin-7-yl)-2-cyano-3,4-dihydroxytetrahydrofuran-2-yl)methyl ((S)-2-((3-cyano-5-fluorobenzyl)oxy)pentadecyl) hydrogen phosphate] | 45 | – | 1490 | – | 3910 | > 43900
CCCCCCCCCCCCCCCCOC[C@@H](COP(=O)(O)OC[C@@]1(C#N)O[C@@H](c2ccc3c(N)ncnn23)[C@H](O)[C@@H]1O)OCc1cc(Cl)cc(C#N)c1 [Compound 98, ((2R,3S,4R,5S)-5-(4-aminopyrrolo[2,1-f][1,2,4]triazin-7-yl)-2-cyano-3,4-dihydroxytetrahydrofuran-2-yl)methyl ((S)-2-((3-chloro-5-cyanobenzyl)oxy)-3-(hexadecyloxy)propyl) hydrogen phosphate] | 11 | 2900 | 34 | – | – | –
